Source: ChEMBL document CHEMBL1136732, “Discovery of 5-[5-fluoro-2-oxo-1,2- dihydroindol-(3Z)-ylidenemethyl]-2,4- dimethyl-1H-pyrrole-3-carboxylic acid (2-diethylaminoethyl)amide, a novel tyrosine kinase inhibitor targeting vascular endothelial and platelet-derived growth factor receptor tyrosine kinase” (J Med Chem, 2003)
Values after ≈ are worked out from the molar mass of the structure shown.

Columns and labels:
[1] = target: Vascular endothelial growth factor receptor 2 (Homo sapiens, UniProt P35968)
[2] = target: Epidermal growth factor receptor (Homo sapiens, UniProt P00533)
[3] = Solubility in 20 mM buffered solution after shaking for 24 hr at 22 degree celsius at pH 6; type: physicochemical
[4] = target: Fibroblast growth factor receptor 1 (Homo sapiens, UniProt P11362)
[5] = In vitro cytotoxicity was determined; conditions: read-out: LD50 (the source's name)
[6] = Solubility in 20 mM buffered solution after shaking for 24 hr at 22 degree celsius at pH 2; type: physicochemical
[7] = target: Platelet-derived growth factor receptor beta (Homo sapiens, UniProt P09619)
Platelet-derived growth factor receptor beta, sequence (P09619 whole entry): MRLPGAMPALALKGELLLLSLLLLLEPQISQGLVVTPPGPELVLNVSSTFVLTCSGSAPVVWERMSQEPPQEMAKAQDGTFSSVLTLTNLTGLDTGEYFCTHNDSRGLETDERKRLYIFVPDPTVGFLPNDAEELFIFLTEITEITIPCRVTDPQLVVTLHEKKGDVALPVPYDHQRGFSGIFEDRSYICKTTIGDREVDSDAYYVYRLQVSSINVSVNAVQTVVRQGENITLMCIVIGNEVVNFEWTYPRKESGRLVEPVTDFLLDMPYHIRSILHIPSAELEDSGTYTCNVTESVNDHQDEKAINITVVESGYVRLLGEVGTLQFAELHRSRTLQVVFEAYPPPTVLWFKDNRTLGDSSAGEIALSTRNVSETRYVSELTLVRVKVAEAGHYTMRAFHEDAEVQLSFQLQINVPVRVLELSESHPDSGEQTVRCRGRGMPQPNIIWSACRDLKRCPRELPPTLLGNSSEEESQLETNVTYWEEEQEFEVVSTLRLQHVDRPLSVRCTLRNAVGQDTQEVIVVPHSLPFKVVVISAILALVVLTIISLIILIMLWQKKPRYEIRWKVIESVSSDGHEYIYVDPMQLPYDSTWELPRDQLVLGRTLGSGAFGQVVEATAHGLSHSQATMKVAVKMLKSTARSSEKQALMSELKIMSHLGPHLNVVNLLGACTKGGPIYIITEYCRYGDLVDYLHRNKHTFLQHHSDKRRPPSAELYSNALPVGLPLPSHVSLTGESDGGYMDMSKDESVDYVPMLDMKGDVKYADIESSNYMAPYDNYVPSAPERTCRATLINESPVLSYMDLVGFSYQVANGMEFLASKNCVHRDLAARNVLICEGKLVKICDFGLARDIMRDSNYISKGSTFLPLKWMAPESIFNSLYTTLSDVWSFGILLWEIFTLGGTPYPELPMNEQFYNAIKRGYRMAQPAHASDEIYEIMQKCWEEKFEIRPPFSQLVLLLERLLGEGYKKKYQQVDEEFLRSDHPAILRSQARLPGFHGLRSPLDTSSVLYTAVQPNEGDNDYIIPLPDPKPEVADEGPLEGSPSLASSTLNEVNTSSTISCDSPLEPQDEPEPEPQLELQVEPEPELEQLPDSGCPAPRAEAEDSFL

Vascular endothelial growth factor receptor 2, sequence (P35968 whole entry): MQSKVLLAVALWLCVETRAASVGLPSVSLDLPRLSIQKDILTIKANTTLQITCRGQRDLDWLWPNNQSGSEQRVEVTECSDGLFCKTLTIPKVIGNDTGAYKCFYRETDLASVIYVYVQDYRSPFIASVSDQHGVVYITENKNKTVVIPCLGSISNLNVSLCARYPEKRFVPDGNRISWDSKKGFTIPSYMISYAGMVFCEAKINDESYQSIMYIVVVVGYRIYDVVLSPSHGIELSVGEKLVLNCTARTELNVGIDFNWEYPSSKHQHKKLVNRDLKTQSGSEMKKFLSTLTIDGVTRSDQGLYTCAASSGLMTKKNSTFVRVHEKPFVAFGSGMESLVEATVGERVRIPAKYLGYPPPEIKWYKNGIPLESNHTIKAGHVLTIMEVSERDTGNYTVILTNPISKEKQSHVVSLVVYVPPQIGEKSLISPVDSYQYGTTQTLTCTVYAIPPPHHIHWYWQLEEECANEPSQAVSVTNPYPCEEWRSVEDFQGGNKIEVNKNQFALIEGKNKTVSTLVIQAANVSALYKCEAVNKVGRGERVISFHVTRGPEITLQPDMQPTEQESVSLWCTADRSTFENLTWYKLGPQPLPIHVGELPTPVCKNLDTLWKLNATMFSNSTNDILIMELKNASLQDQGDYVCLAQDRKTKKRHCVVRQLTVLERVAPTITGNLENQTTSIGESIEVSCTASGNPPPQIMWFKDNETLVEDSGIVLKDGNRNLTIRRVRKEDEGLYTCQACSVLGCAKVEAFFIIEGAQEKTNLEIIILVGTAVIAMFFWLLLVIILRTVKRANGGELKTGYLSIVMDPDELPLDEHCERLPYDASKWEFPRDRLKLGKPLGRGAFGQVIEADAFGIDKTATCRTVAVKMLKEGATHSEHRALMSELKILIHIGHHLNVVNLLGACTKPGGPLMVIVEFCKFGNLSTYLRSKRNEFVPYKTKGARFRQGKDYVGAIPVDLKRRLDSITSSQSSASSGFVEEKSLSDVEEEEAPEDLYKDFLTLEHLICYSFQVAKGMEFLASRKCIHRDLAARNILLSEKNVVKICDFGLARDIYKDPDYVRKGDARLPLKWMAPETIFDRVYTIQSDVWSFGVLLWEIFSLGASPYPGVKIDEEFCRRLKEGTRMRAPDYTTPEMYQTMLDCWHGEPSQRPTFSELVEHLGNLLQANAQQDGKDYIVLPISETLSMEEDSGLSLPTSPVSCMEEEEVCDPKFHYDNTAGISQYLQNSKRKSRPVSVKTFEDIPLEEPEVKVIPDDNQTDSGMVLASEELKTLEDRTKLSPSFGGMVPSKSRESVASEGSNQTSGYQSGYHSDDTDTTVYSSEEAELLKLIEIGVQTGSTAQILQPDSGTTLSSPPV
Epidermal growth factor receptor, sequence (P00533 whole entry): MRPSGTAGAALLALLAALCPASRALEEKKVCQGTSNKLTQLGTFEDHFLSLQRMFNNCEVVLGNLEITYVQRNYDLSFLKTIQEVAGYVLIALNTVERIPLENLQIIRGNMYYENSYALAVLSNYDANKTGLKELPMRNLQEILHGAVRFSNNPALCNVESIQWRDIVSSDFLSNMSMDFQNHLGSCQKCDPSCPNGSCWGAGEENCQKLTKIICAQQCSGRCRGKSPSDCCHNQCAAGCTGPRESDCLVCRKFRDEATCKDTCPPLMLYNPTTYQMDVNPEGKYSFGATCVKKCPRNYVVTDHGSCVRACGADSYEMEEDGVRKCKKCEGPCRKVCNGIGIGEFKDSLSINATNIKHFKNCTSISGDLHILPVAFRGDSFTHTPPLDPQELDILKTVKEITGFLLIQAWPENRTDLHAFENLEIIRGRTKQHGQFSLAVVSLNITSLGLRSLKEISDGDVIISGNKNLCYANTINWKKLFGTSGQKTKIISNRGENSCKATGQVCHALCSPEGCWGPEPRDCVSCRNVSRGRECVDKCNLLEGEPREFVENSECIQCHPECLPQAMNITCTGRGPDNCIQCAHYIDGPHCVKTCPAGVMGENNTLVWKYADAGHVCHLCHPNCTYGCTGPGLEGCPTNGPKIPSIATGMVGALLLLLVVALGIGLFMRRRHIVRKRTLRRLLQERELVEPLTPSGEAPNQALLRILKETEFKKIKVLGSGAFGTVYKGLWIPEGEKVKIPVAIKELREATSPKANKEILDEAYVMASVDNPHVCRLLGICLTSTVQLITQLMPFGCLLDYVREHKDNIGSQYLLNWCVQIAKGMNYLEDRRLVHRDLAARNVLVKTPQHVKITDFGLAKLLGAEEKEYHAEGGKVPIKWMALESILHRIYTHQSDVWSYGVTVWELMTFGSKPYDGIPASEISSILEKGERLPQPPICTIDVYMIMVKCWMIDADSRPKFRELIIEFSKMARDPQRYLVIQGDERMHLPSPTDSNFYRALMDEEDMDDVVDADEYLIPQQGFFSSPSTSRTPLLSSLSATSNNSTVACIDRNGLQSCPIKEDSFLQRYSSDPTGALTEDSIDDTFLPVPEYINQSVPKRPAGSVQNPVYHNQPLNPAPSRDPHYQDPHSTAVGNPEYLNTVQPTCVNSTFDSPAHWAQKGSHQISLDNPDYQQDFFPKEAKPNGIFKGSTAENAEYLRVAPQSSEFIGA
Fibroblast growth factor receptor 1, sequence (P11362 whole entry): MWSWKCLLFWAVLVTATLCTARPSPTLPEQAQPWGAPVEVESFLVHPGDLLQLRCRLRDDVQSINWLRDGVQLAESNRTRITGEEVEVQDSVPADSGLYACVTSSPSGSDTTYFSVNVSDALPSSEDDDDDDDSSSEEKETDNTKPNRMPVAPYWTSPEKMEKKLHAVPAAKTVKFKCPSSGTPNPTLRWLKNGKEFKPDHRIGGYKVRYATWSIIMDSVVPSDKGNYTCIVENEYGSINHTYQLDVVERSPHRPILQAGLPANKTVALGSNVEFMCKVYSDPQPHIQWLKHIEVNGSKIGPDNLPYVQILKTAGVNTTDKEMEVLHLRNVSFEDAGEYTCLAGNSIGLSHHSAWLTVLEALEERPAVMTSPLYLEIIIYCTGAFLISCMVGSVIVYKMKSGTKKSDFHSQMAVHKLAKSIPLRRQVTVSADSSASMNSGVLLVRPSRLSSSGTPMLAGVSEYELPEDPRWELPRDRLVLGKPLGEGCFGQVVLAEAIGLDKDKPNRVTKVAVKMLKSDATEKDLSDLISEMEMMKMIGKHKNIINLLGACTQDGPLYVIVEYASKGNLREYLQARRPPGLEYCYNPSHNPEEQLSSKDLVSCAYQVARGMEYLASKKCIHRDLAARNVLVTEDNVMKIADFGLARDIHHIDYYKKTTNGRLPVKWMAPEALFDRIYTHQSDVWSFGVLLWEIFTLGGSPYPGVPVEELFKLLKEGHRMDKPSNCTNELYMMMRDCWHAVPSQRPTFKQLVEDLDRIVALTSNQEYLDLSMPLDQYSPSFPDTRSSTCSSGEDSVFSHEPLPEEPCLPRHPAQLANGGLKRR

Cc1[nH]c(/C=C2\C(=O)Nc3ccc(F)cc32)c(C)c1C(=O)NCCN1CCOCC1
IC50 [1]: 90 nM | IC50 [2]: > 20000 nM | solubility thermodynamic at 24 h [3]: 0.3 µg/mL (≈ 0.727 µM) | IC50 [4]: 2600 nM | CC50 [5]: > 50000 nM | solubility thermodynamic at 24 h [6]: 2940 µg/mL (≈ 7140 µM) | IC50 [7]: 2 nM

CCN(CC)CCNC(=O)c1c(C)[nH]c(/C=C2\C(=O)Nc3ccc(Br)cc32)c1C
IC50 [1]: 32 nM | IC50 [2]: 10000 nM | solubility thermodynamic at 24 h [3]: 101 µg/mL (≈ 220 µM) | CC50 [5]: 16300 nM | solubility thermodynamic at 24 h [6]: 1300 µg/mL (≈ 2830 µM) | IC50 [7]: 5 nM

Cc1[nH]c(/C=C2\C(=O)Nc3ccc(F)cc32)c(C)c1C(=O)NCCN(C)C
IC50 [1]: 80 nM | IC50 [2]: > 20000 nM | solubility thermodynamic at 24 h [3]: 75 µg/mL (≈ 202 µM) | IC50 [4]: 1600 nM | CC50 [5]: 48500 nM | solubility thermodynamic at 24 h [6]: 3010 µg/mL (≈ 8130 µM) | IC50 [7]: 0.5 nM

Cc1[nH]c(/C=C2\C(=O)Nc3ccc(F)cc32)c(C)c1C(=O)NCC1CCN(C)CC1
IC50 [1]: 25 nM | solubility thermodynamic at 24 h [3]: > 250 µg/mL | IC50 [4]: 200 nM | CC50 [5]: 38000 nM | solubility thermodynamic at 24 h [6]: > 250 µg/mL | IC50 [7]: 3 nM

Cc1[nH]c(/C=C2\C(=O)Nc3ccc(F)cc32)c(C)c1C(=O)NCCn1cncn1
IC50 [1]: 85 nM | IC50 [2]: > 20000 nM | solubility thermodynamic at 24 h [3]: 6 µg/mL (≈ 15.2 µM) | IC50 [4]: 17100 nM | CC50 [5]: > 50000 nM | solubility thermodynamic at 24 h [6]: 2 µg/mL (≈ 5.07 µM) | IC50 [7]: 10 nM

Cc1[nH]c(/C=C2\C(=O)Nc3ccc(F)cc32)c(C)c1C(=O)NCc1ccncc1
IC50 [1]: < 160 nM | IC50 [2]: > 20000 nM | IC50 [4]: 3100 nM | CC50 [5]: > 50000 nM | solubility thermodynamic at 24 h [6]: 486 µg/mL (≈ 1240 µM) | IC50 [7]: 1 nM

CCN(CC)CCNC(=O)c1c(C)[nH]c(/C=C2\C(=O)Nc3ccccc32)c1C
IC50 [1]: 50 nM | IC50 [2]: > 20000 nM | solubility thermodynamic at 24 h [3]: 511 µg/mL (≈ 1340 µM) | IC50 [4]: 880 nM | CC50 [5]: > 50000 nM | solubility thermodynamic at 24 h [6]: 3020 µg/mL (≈ 7940 µM) | IC50 [7]: 17 nM

Cc1[nH]c(/C=C2\C(=O)Nc3ccccc32)c(C)c1CCCN1CCN(C)CC1
IC50 [1]: 300 nM | IC50 [2]: > 20000 nM | IC50 [4]: 4200 nM | CC50 [5]: > 50000 nM | IC50 [7]: 60 nM

Cc1[nH]c(/C=C2\C(=O)Nc3ccccc32)c(C)c1CCC(=O)O [ORANTINIB]
CC50 [5]: > 50000 nM | solubility thermodynamic at 24 h [6]: < 5 µg/mL

Cc1cc(C)c(/C=C2\C(=O)Nc3ccccc32)[nH]1 [SEMAXANIB]
solubility thermodynamic at 24 h [3]: < 1 µg/mL | CC50 [5]: > 50000 nM | solubility thermodynamic at 24 h [6]: < 1 µg/mL

CCN(CC)CCNC(=O)c1c(C)[nH]c(/C=C2\C(=O)Nc3ccc(Cl)cc32)c1C [SU-11652]
IC50 [1]: 27 nM | IC50 [2]: > 20000 nM | solubility thermodynamic at 24 h [3]: 186 µg/mL (≈ 448 µM) | IC50 [4]: 170 nM | CC50 [5]: 15600 nM | solubility thermodynamic at 24 h [6]: 3260 µg/mL (≈ 7850 µM) | IC50 [7]: 3 nM

CCN(CC)CCNC(=O)c1c(C)[nH]c(/C=C2\C(=O)Nc3ccc(F)cc32)c1C [SUNITINIB]
solubility thermodynamic at 24 h [3]: 364 µg/mL (≈ 913 µM) | CC50 [5]: 48900 nM | solubility thermodynamic at 24 h [6]: 2580 µg/mL (≈ 6480 µM)

Cc1[nH]c(/C=C2\C(=O)Nc3ccc(F)cc32)c(C)c1C(=O)NCCN1CCCC1 [TOCERANIB]
IC50 [1]: 60 nM | IC50 [2]: > 20000 nM | solubility thermodynamic at 24 h [3]: 9 µg/mL (≈ 22.7 µM) | IC50 [4]: 3900 nM | CC50 [5]: 49000 nM | solubility thermodynamic at 24 h [6]: 3320 µg/mL (≈ 8370 µM) | IC50 [7]: 1 nM
